Source: patent publication US10214584B2, “Therapeutic pharmaceutical composition employing anti-SLC6A6 antibody” (ORDER-MADE MEDICAL RESEARCH INC., priority 2014, dated 2019)

What was measured:
Type in all cases: cell-based, human
Colo320-SLC6A6-OEx = experiment: Ratio of SP cells upon addition of taurine, Colo320-SLC6A6-OEx
Method: (§1) After being transformed in the same manner as shown in Example 8(1) above, the cells were detached on the second day with DISSOCIATION BUFFER (Invitrogen). The cells were stained at 37° C. for 1 hour with a solution prepared to contain 10 μg/mL Hoechst 33342 in PBS(−), followed by analysis using FACS Canto II and a Violet laser (excitation wavelength: 407 nm). Moreover, to identify an SP fraction, an additional experiment was conducted in which verapamil serving an inhibitor of drug efflux transporters was added at a concentration of 30 μg/mL.
(§2) For this analysis, Colo320 cells (which are human colorectal cancer cells) were engineered to overexpress SLC6A6 and cultured for 2 days in a medium supplemented with taurine at a concentration of 0.05 mM, 0.1 mM, 0.5 mM, 1 mM or 5 mM, and then analyzed for SP cells in the same manner as shown in Example 1(3).

Colo320-Mock = experiment: Ratio of SP cells upon addition of taurine, Colo320-Mock; details: taurine 0.05-5 mM, FIG. 10
Method: as §1, §2

[1] = system: SW480 cells (SP and MP fractions); experiment: FACS staining of SP and MP fractions of SW480 cells; details: SW480, verapamil 30 μg/mL
Method: Moreover, to identify an SP fraction, an additional experiment was conducted in which verapamil serving an inhibitor of drug efflux transporters was added at a concentration of 30 μg/mL.
SLC6A6 expression was analyzed for the SP fraction and non-SP fraction (i.e., major population (MP) fraction) of SW480 cells, which are human colorectal cancer cells.

SMILES | increase of ratio of SP cells compared to the absence of taurine (Colo320-SLC6A6-OEx; 5 mM taurine) | ratio of SP cells (Colo320-SLC6A6-OEx; 5 mM taurine, cultured 2 days (17.0% in the absence of taurine)) [%] | number of SP cells (Colo320-SLC6A6-OEx; taurine 0.05-5 mM, FIG. 10) | number of SP cells (Colo320-Mock) | SP cells in the presence of verapamil [1]
NCCS(=O)(=O)O [taurine] | about 2.5 fold | 26.7 | increased in a manner dependent on the added concentration of taurine | increased in a manner dependent on the added concentration of taurine | –
COc1ccc(CCN(C)CCCC(C#N)(c2ccc(OC)c(OC)c2)C(C)C)cc1OC (centres unmarked) [verapamil] | – | – | – | – | no SP cells were observed
